We go through two compounds from paper PMC9528096, “A phase Ib study of camrelizumab in combination with apatinib and fuzuloparib in patients with recurrent or metastatic triple-negative breast cancer” (BMC Medicine, 2022).

The nature of this series: clinical. Details: species or system human. The following applies: in vivo; for Tmax: human. The protocol:
Adverse events were monitored throughout the study treatment from informed consent until 90 days after the last camrelizumab dose or 30 days after the last apatinib or fuzuloparib dose, whichever occurred later, and were graded according to the National Cancer Institute Common Terminology Criteria for Adverse Events version 5.0. Radiographic assessment was performed by computed tomography (CT) or magnetic resonance imaging (MRI) according to RECIST version 1.1 at baseline and every two cycles. Complete or partial responses were confirmed 4 weeks later. Blood samples for pharmacokinetic analysis of apatinib and fuzuloparib were collected in all patients enrolled in the dose-finding part and in six to eight patients enrolled in the dose-expansion part. To evaluate the pharmacokinetic data of single-agent apatinib, patients intended for pharmacokinetic analysis were given apatinib alone 3 days before combination treatment initiation. Blood samples were collected 30 min pre-dose, 30 min, 1 h, 2 h, 3 h, 4 h, 8 h, 12 h, and 24 h post-dose on day − 3 of cycle 0 and day 1 of cycle 1.
The primary endpoint was DLT in cycle 1.
Safety and antitumor activity analyses were performed in all patients who received at least one dose of the study treatment. Continuously distributed data were summarized as mean (standard deviation) or median (range). Categorical data were summarized by the number and percentage of patients in each category. Adverse events were summarized descriptively. Two-sided 95% confidence intervals (CIs) for ORR and DCR were calculated using the Clopper-Pearson method. The PFS, DOR, and 12-month OS rate and their corresponding 95% CIs were estimated using the Kaplan–Meier method. Analyses of safety and antitumor activity were performed with SAS version 9.4. Pharmacokinetic parameters were descriptively summarized with non-compartmental analysis using WinNonlin (version 8.2).

Each structure is given as a SMILES string.

Usually Tmax stands for the time from dosing to the highest level. Turning to `N#CC1(c2ccc(NC(=O)c3cccnc3NCc3ccncc3)cc2)CCCC1` [Apatinib, apatinib], the Tmax was determined as 2 h; the “Apatinib exposure before and after co-administration with fuzuloparib” value is recorded as “comparable”.

For `O=C(c1cc(Cc2n[nH]c(=O)c3ccccc23)ccc1F)N1CCn2nc(C(F)(F)F)nc2C1` [Fuzuloparib, fuzuloparib], the Tmax was found to be 3 h.
